Results as given in patent US7754767B2, “Method for treatment of premature ejaculation in humans” (Trinity Laboratories, Inc., priority 2002, dated 2010).
Where “and” joins values, the source holds several entries; their conditions need not be identical. Equal entries are not always repeated.

Legend:
[1] = Plasma concentrations of DM after oral DM with or without quinidine (HPLC); type: in vivo, human; conditions: blood sampled 10-12 hours later, per volunteer
Protocol: Five patients with a symptom of having premature ejaculation were orally administered 120 mg of DM, with no co-administration of quinidine. Between 10 and 12 hours later, blood was sampled, blood plasma was isolated by centrifugation, and the plasma was analyzed to determine the DM concentration using the HPLC method. During a different week, the same patients were orally administered 60 mg of DM (half the control dosage) and 150 mg of quinidine. Between 10 and 12 hours later, blood was sampled and the plasma was analyzed for DM using thebaine/HPLC. The results, in Table 1, indicate that quinidine causes a major increase in the concentration of DM in the blood plasma.

cyclooxygenase-2 (COX-2) = cyclooxygenase-2 (COX-2) (Homo sapiens, UniProt P35354); conditions: cited from earlier work
[2] = target: phosphodiesterase type 5 (PDE5) (Homo sapiens, UniProt O76074); conditions: in vitro; PDE5 vs PDE6; cited from earlier work
[3] = oral administration, Viagra formulation; cited from earlier work

Sequence of cyclooxygenase-2 (COX-2) (P35354 18-604, species assumed): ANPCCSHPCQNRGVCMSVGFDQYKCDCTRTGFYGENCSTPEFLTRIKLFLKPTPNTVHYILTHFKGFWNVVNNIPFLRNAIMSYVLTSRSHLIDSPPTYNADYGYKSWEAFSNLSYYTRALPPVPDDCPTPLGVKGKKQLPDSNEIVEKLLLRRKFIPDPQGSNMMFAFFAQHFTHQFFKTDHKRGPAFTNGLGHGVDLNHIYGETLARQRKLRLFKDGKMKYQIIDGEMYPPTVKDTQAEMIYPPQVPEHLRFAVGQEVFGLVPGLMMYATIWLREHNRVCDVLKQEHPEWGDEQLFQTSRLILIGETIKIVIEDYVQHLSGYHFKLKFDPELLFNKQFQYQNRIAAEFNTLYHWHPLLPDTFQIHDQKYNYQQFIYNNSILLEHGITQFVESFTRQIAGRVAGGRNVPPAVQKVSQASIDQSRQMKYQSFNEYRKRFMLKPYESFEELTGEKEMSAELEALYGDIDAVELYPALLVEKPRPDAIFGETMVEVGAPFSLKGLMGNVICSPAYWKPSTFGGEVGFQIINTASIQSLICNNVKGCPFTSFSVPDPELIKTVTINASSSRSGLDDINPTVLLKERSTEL

## COc1ccc2c(c1)[C@@]13CCCC[C@H]1[C@@H](C2)N(C)CC3 [DM, (+)-3-methoxy-N-methylmorphinan]
[1]; 60 mg DM + 150 mg quinidine oral
  PLASMA CONCENTRATION of DM: 34.2 ng/mL and 42.4 ng/mL and 30.2 ng/mL and 26.8 ng/mL and 10.2 ng/mL
[1]; 120 mg DM oral, quinidine 0 mg
  PLASMA CONCENTRATION of DM: 13.5 ng/mL and 15.4 ng/mL and <1 ng/mL (2×) and 5.7 ng/mL

## CS(=O)(=O)c1ccc(C2=C(c3ccccc3)C(=O)OC2)cc1 [rofecoxib]
cyclooxygenase-2 (COX-2)
  specificity for inhibiting COX-2 (over COX-1): about 350 fold

## CCCc1nn(C)c2c(=O)[nH]c(-c3cc(S(=O)(=O)N4CCN(C)CC4)ccc3OCC)nc12 [sildenafil, 1-[[3-(6,7-dihydro-1-methyl-7-oxo-3-propyl-1H-pyrazolo[4,3-d]pyrimidin-5-yl)-4-ethoxyphenyl]sulfonyl]-4-methyl piperazine]
[2]
  potency for PDE5 compared to PDE6: about 10 fold
[3]
  absolute bioavailability: about 40%
